Experimental data taken from patent US20220380801A1, “TRIPARTITE SYSTEMS FOR PROTEIN DIMERIZATION AND METHODS OF USE” (priority 2019, published 2022).

These molecules were tested on mutant HCV PR: simeprevir: PRSIM_23 complex (assay: HTRF disruption of pre-formed mutant complexes). Settings: mutation at position 136.
Format: binding, Hepatitis C virus subtype 1a
Description: Methods of determining whether the competing small molecule is capable of binding to the target protein in the T-SM complex and displacing the small molecule from the T-SM complex include assays where a pre-formed tripartiate complex is generated and the ability of the binding member to bind the T-SM complex is measured (e.g. by a homogeneous time-resolved florescence (HTFR) binding assay) as increasing concentrations of the competing small molecule are added. A competing small molecule may be capable to displaying the small molecule from the T-SM complex if it is capable of inhibiting binding of inhibiting the binding member from binding the T-SM complex by at least 50%, by at least 75%, by at least 80%, by at least 85%, by at least 90%, or by at least 95% when measured using the HTFR binding assay. In some embodiments, the competing small molecule is asunaprevir, paritaprevir, vaniprevir, grazoprevir, danoprevir or glecaprevir. The binding member, target protein and small molecule using in the method may be as further defined herein in relation to other aspects of the disclosure.
To further characterise the mutations made to the HCV NS3/4A PR, we investigated whether the small molecules were able to disrupt pre-formed mutant HCV PR: simeprevir: PRSIM_23 complexes. […] The degree of inhibition is dependent on the specific mutation made.

Row | Structure (SMILES) | inhibition of pre-formed mutant complex
1 | C=C[C@@H]1C[C@]1(NC(=O)[C@@H]1C[C@@H](Oc2ncc(OC)c3ccc(Cl)cc23)CN1C(=O)[C@@H](NC(=O)OC(C)(C)C)C(C)(C)C)C(=O)NS(=O)(=O)C1CC1 [asunaprevir] | more pronounced inhibition
2 | CC(C)(C)OC(=O)N[C@H]1CCCCC/C=C\[C@@H]2C[C@@]2(C(=O)NS(=O)(=O)C2CC2)NC(=O)[C@@H]2C[C@@H](OC(=O)N3Cc4cccc(F)c4C3)CN2C1=O [danoprevir] | more pronounced inhibition
3 | CC(C)(C)[C@@H]1NC(=O)O[C@@H]2CCC[C@H]2OC/C=C/C(F)(F)c2nc3ccccc3nc2O[C@@H]2C[C@@H](C(=O)N[C@]3(C(=O)NS(=O)(=O)C4(C)CC4)C[C@H]3C(F)F)N(C2)C1=O [glecaprevir] | more pronounced inhibition
4 | C=C[C@@H]1C[C@]1(NC(=O)[C@@H]1C[C@@H]2CN1C(=O)[C@H](C(C)(C)C)NC(=O)O[C@@H]1C[C@H]1CCCCCc1nc3ccc(OC)cc3nc1O2)C(=O)NS(=O)(=O)C1CC1.O [grazoprevir] | more pronounced inhibition
5 | Cc1cnc(C(=O)N[C@H]2CCCCC/C=C\[C@@H]3C[C@@]3(C(=O)NS(=O)(=O)C3CC3)NC(=O)[C@@H]3C[C@@H](Oc4nc5ccccc5c5ccccc45)CN3C2=O)cn1 [paritaprevir] | more pronounced inhibition
6 | CC[C@@H]1C[C@]1(NC(=O)[C@@H]1C[C@@H]2CN1C(=O)[C@H](C(C)(C)C)NC(=O)OCC(C)(C)CCCCc1cccc3c1CN(C3)C(=O)O2)C(=O)NS(=O)(=O)C1CC1 [vaniprevir] | more pronounced inhibition
